Data reported in paper PMC8500670, “A selective WDR5 degrader inhibits acute myeloid leukemia in patient-derived mouse models” (Science translational medicine, 2021).

Legend:
Experiment in all cases: biochemical
Parameters in all cases: kinase selectivity panel, single concentration, duplicate
Abl = target: T1, Abl (Homo sapiens, UniProt P00519)
T1 construct: gene ABL1
Protocol: (§1) We next assessed selectivity of MS67 against 22 protein methyltransferases (table S2) and a broad panel of common drug targets including 45 kinases (table S3) and 44 G protein–coupled receptors (GPCR), ion channels, and transporters (table S4). […] We subsequently determined that MS67 had moderate binding affinity (Ki = 1.0 ± 0.8 μM) to Sigma 2 receptor (fig. S10).

Aurora-A = target: T2, Aurora-A (Homo sapiens, UniProt O14965)
T2 construct: gene AURKA
Protocol: as §1

CDK1/cyclinB = CDK1/cyclinB (Homo sapiens, UniProt P06493)
Protocol: as §1

CDK2/cyclinA = CDK2/cyclinA (Homo sapiens, UniProt P24941)
Protocol: as §1

CHK2 = target: T3, CHK2 (Homo sapiens, UniProt O96017)
T3 construct: gene CHEK2
T3 sequence (O96017 whole entry): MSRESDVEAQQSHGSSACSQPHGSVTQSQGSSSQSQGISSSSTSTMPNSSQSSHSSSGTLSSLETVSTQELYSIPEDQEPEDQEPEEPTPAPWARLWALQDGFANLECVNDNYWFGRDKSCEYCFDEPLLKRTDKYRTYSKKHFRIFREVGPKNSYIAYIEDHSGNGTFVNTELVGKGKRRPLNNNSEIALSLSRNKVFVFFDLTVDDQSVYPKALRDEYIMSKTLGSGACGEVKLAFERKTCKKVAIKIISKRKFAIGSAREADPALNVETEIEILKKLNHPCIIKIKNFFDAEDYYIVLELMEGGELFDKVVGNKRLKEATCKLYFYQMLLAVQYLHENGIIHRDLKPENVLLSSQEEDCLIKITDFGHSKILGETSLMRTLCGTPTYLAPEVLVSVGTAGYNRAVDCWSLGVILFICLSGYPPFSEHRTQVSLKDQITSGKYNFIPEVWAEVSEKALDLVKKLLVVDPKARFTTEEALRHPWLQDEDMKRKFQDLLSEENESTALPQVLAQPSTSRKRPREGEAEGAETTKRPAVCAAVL
Protocol: as §1

CaMKIIα = target: T4, CaMKIIα (Homo sapiens, UniProt Q9UQM7)
T4 construct: gene CAMK2A
Protocol: as §1

EGFR = EGFR (Homo sapiens, UniProt P00533)
Protocol: as §1

EphB4 = EphB4 (Homo sapiens, UniProt P54760)
Protocol: as §1

FGFR3 = FGFR3 (Homo sapiens, UniProt P22607)
Protocol: as §1

GSK3β = target: T5, GSK3β (Homo sapiens, UniProt P49841)
T5 construct: gene GSK3B
Protocol: as §1

IKKα = target: T6, IKKα (Homo sapiens, UniProt O15111)
T6 construct: gene CHUK
Protocol: as §1

JAK3 = JAK3 (Homo sapiens, UniProt P52333)
Protocol: as §1

KDR = KDR (Homo sapiens, UniProt P35968)
Protocol: as §1

MAP4K4 = MAP4K4 (Homo sapiens, UniProt O95819)
Protocol: as §1

MAPK2 = target: T7, MAPK2 (Homo sapiens, UniProt P28482)
T7 construct: gene MAPK1
T7 sequence (P28482 whole entry): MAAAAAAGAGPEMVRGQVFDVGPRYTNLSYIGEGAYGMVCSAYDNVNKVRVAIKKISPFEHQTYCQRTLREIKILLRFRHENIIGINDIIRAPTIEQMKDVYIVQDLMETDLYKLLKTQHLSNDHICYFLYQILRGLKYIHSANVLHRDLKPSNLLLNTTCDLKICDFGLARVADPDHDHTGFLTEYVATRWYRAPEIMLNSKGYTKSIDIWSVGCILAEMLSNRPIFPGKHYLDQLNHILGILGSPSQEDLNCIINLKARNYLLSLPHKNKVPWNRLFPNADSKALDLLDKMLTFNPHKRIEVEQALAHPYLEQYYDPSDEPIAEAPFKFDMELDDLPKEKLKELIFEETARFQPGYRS
Protocol: as §1

MAPKAP-K2 = target: T8, MAPKAP-K2 (Homo sapiens, UniProt P49137)
T8 construct: gene MAPKAPK2
T8 sequence (P49137 whole entry): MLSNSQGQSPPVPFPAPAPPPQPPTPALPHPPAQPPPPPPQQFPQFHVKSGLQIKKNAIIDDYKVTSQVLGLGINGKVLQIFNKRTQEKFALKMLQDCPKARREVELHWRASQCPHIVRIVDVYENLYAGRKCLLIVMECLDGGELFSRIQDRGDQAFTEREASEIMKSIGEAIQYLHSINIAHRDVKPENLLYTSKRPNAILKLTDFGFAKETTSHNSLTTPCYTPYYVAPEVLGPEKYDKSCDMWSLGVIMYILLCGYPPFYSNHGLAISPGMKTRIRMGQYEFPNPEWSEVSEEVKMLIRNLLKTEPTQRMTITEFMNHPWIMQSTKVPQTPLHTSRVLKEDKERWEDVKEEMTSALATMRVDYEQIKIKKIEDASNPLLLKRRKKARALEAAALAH
Protocol: as §1

MARK1 = MARK1 (Homo sapiens, UniProt Q9P0L2)
Sequence of MARK1 (Q9P0L2 whole entry): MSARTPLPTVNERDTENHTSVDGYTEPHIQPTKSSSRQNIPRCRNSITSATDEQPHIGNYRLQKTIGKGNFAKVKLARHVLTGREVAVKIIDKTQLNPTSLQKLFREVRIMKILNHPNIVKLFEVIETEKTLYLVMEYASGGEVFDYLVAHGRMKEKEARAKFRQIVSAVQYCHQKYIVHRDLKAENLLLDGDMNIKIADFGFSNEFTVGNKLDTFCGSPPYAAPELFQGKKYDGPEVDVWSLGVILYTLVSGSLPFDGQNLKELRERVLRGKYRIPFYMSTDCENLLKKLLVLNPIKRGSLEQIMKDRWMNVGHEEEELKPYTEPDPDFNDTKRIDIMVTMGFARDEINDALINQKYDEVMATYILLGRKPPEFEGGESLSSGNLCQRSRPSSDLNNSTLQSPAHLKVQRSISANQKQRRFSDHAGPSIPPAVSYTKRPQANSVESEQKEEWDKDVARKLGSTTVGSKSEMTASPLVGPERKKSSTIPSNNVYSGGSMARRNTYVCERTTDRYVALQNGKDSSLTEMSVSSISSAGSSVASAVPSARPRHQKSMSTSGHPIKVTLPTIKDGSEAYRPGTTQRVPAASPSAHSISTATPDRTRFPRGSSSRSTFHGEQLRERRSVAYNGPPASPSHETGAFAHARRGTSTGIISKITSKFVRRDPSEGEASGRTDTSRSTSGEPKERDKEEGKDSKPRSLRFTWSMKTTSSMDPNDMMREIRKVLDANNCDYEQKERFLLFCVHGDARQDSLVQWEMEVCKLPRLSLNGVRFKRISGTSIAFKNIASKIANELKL
Protocol: as §1

Mnk2 = target: T9, Mnk2 (Homo sapiens, UniProt Q9HBH9)
T9 construct: gene MKNK2
Protocol: as §1

NEK2 = NEK2 (Homo sapiens, UniProt P51955)
Protocol: as §1

PDK1 = target: T10, PDK1 (Homo sapiens, UniProt O15530)
T10 construct: gene PDPK1
Protocol: as §1

PKA = target: T11, PKA (Homo sapiens, UniProt P17612)
T11 construct: gene PRKACA
Protocol: as §1

PKBα = target: T12, PKBα (Homo sapiens, UniProt P31749)
T12 construct: gene AKT1
Protocol: as §1

PKCβII = target: T13, PKCβII (Homo sapiens, UniProt P05771)
T13 construct: gene PRKCB; isoform beta II
Protocol: as §1

Pim-2 = target: T14, Pim-2 (Homo sapiens, UniProt Q9P1W9)
T14 construct: gene PIM2
Protocol: as §1

ROCK-I = target: T15, ROCK-I (Homo sapiens, UniProt Q13464)
T15 construct: gene ROCK1
Protocol: as §1

SAPK2a = target: T16, SAPK2a (Homo sapiens, UniProt Q16539)
T16 construct: gene MAPK14
T16 sequence (Q16539 whole entry): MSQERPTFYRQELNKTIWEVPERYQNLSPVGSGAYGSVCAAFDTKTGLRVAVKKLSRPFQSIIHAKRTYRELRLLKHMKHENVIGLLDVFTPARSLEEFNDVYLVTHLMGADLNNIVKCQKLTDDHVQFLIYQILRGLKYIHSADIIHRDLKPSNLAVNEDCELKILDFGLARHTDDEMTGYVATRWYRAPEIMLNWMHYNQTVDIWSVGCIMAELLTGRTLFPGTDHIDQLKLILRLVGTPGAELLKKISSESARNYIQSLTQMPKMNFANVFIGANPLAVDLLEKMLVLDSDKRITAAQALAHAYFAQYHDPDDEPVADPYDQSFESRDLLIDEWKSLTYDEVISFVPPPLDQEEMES
Protocol: as §1

SGK = target: T17, SGK (Homo sapiens, UniProt O00141)
T17 construct: gene SGK1
T17 sequence (O00141 whole entry): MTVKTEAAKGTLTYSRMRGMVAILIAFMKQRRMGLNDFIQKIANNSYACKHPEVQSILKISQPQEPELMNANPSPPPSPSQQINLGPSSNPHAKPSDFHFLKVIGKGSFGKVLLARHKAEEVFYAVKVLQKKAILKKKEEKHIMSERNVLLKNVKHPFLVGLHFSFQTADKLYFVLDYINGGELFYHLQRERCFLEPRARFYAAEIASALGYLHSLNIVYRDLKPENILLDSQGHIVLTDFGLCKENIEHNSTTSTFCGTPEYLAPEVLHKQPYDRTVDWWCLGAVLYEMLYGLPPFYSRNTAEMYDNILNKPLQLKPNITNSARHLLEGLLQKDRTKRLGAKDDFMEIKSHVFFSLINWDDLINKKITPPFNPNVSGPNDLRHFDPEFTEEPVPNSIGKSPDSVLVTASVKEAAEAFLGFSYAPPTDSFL
Protocol: as §1

TAO2 = target: T18, TAO2 (Homo sapiens, UniProt Q9UL54)
T18 construct: gene TAOK2
T18 sequence (Q9UL54 whole entry): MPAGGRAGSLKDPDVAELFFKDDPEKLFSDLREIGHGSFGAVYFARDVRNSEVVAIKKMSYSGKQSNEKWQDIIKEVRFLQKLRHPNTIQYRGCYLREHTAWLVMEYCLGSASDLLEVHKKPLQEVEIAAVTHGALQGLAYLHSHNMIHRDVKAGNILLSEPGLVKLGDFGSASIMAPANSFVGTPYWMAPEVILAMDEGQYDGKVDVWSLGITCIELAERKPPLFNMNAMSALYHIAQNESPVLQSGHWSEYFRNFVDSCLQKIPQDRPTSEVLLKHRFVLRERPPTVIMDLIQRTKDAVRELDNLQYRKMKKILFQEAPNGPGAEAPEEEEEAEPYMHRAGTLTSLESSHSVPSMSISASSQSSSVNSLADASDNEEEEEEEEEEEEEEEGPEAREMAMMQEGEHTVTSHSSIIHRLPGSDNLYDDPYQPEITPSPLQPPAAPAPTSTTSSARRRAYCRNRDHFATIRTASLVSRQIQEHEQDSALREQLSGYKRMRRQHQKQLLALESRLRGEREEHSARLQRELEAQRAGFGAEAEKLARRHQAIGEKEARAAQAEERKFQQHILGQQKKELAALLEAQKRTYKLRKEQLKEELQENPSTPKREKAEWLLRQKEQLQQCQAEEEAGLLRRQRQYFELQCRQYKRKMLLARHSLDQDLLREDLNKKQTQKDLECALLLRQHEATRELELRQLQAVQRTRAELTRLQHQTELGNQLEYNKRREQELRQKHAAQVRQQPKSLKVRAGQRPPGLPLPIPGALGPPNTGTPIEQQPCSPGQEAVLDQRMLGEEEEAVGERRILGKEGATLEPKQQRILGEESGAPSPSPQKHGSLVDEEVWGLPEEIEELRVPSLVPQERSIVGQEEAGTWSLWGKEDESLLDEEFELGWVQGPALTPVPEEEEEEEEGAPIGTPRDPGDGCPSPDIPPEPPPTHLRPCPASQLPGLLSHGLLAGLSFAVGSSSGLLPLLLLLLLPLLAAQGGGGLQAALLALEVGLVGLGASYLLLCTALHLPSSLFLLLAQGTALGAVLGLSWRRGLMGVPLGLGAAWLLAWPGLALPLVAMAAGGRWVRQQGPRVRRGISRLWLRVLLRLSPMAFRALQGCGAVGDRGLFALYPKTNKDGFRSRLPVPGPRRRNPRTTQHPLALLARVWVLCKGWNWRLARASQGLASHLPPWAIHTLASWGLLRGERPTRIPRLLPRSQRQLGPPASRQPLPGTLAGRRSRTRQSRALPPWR
Protocol: as §1

TRKA = target: T19, TRKA (Homo sapiens, UniProt P04629)
T19 construct: gene NTRK1
T19 sequence (P04629 whole entry): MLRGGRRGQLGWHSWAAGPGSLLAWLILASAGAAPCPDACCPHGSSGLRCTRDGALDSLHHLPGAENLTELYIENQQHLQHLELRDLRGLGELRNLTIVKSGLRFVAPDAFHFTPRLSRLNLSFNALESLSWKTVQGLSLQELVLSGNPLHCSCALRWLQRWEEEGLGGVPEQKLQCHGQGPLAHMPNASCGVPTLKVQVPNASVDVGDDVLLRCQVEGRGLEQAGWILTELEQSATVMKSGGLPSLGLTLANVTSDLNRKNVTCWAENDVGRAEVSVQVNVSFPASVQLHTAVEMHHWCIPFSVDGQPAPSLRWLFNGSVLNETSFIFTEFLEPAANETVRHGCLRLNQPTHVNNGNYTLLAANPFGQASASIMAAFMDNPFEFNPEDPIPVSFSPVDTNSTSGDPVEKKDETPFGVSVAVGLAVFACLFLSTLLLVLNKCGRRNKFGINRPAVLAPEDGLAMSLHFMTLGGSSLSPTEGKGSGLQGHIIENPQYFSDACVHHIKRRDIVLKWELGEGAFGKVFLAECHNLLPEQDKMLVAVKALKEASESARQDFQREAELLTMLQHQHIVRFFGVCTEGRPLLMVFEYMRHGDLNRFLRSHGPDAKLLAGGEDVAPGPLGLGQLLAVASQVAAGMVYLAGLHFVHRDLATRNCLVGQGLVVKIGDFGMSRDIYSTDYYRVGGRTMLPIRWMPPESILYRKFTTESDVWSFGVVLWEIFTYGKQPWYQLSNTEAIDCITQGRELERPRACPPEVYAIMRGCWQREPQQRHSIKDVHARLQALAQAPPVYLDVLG
Protocol: as §1

Measured: inhibition at 1 µM

Cc1ncsc1-c1ccc([C@H](C)NC(=O)[C@@H]2C[C@@H](O)CN2C(=O)[C@@H](NC(=O)CNC(=O)c2ccc(F)c(-c3ccc(N4C[C@@H](C)N(C)[C@@H](C)C4)c(NC(=O)c4c[nH]c(=O)cc4C(F)(F)F)c3)c2)C(C)(C)C)cc1 [MS67]
< 10%: Abl | Aurora-A | CDK1/cyclinB | CDK2/cyclinA | CHK2 | CaMKIIα | EGFR | EphB4 | FGFR3 | GSK3β | IKKα | JAK3 | KDR | MAP4K4 | MAPK2 | MAPKAP-K2 | MARK1 | Mnk2 | NEK2 | PDK1 | PKA | PKBα | PKCβII | Pim-2 | ROCK-I | SAPK2a | SGK | TAO2 | TRKA
